Data: patent publication US12606561B2, “Substituted pyrazolo[1,5-a][1,3,5]triazines as CDK inhibitors” (QURIENT CO., LTD., priority 2018, dated 2026)

Experiments:
CDK7/Cyclin H/MNAT1 = biological target: T1, CDK7/Cyclin H/MNAT1 (Homo sapiens, UniProt P50613); assay: Enzymatic assay for CDK7 (LANCE Ultra kinase assay, FRET based); type: biochemical; details: for IC50: ATP at Km
T1 construct: purchased Invitrogen PR6749B
Description: (§1) Enzymatic Binding Assay Protocol for CDK1, CDK2, CDK5 and CDK7
(§2) Inhibition activity of the respective compound on CDK kinase under Km value of ATP was tested in FRET based The LANCE® Ultra kinase assay (Perkin Elmer), which uses a ULight™-labeled peptide substrate and an appropriate Europium-labeled anti-phospho-antibody. […] After 1 min centrifugation at 1000 rpm, purified CDKs/Cyclin complex were added with the following concentrations respectively. […] Data were analyzed using XL Fit software.

CDK2/Cyclin A = biological target: T2, CDK2/Cyclin A (Homo sapiens, UniProt P24941); assay: Enzymatic assay for CDK2 (LANCE Ultra kinase assay, FRET based); type: biochemical; details: ATP at Km
T2 construct: purchased Invitrogen PV6290
Description: as §1
(§3) Inhibition activity of the respective compound on CDK kinase under Km value of ATP was tested in FRET based The LANCE® Ultra kinase assay (Perkin Elmer), which uses a ULight™-labeled peptide substrate and an appropriate Europium-labeled anti-phospho-antibody. Test compounds were made with DMSO solutions, and then 4-fold serial dilutions for 8 doses were prepared using automated liquid handler (POD™ 810, Labcyte) and 80 nL/well of diluted compound solutions were added into the 384-well plates (Greiner, Cat #784075). And then 68 nM of ULight-MBP peptide (Perkin Elmer, Cat #TRF0109-M) and 5 ul/well of ATP (Sigma, Cat #A7699) were added to the plate. After 1 min centrifugation at 1000 rpm, purified CDKs/Cyclin complex were added with the following concentrations respectively. 24 uM for CDK1/Cyclin B (Invitrogen, Cat #PR4768C), 22 uM for CDK2/Cyclin A (Invitrogen, Cat #PV6290), 10 uM for CDK5/p25 (Invitrogen, Cat #PR8543B) and […] for CDK7/Cyclin H/MNAT1 (Invitrogen, Cat #PR6749B) were added to each corresponding plate for CDK1, CDK2, CDK5 and CDK7. Incubate at 23° C. for 60 min and then Eu-labeled anti-phospho-Myelin Basic Protein (PE, Cat #TRF0201-M) and EDTA (Invitrogen, Cat #15575038) mixture in Lance Detection Buffer (Perkin Elmer, Cat #CR97100) was added in each well. After additional incubation at 23° C. for 60 min, test articles were measured the fluorescence using Envision leader (Perkin Elmer, USA) [Laser as excitation light; […] as the first and the second emission filter]. Data were analyzed using XL Fit software.

CDK1/Cyclin B = biological target: T3, CDK1/Cyclin B (Homo sapiens, UniProt P06493); assay: Enzymatic assay for CDK1 (LANCE Ultra kinase assay, FRET based); type: biochemical; details: ATP at Km; read-out: CDK1 enzymatic activity IC50
T3 construct: purchased Invitrogen PR4768C
Description: as §1, §2

CDK5/p25 = biological target: T4, CDK5/p25 (Homo sapiens, UniProt Q00535); assay: Enzymatic assay for CDK5 (LANCE Ultra kinase assay, FRET based); type: biochemical; details: ATP at Km
T4 construct: purchased Invitrogen PR8543B
Description: as §1, §3

A2780 = A2780 viability assay (CellTiter-Glo, 72 hours); type: cell-based; details: Homo sapiens; A2780 cells
Description: Human […] cell line, MV4-11_(ATCC, Cat #CRL-9591), NSCLC (Non-small cell lung cancer) cell line H460 (ATCC, Cat #HTB-177), A2780 (ECACC, Cat #93112519) and OVCAR-3(ATCC, Cat #HTB-161) were obtained from ATCC. Cells were grown in RPMI-1640 media (Invitrogen, Cat #22400-089) supplemented with 10% FBS (Invitrogen, Cat #10099141) and 1% penicillin/streptomycin (Invitrogen, Cat #15070063) and cultured at 37° C., 5% CO2 in a humidified chamber. All cell lines were routinely tested for mycoplasma.
To effect of the CDK7 inhibitor to inhibit the growth of target cancer cells, viability assay were conducted a 72 hour time period. Briefly, the candidate cell line was plated in 96 well plate at the following density of cells respectively. 1×10^4 cells/well for MV4-11, 5×10^3 for H460 and OVCAR-3, and 1×10^3 for A2780. After 24 hours, the cells were treated with various concentrations of the compound (ranging from 0.0015 uM to 10 uM). DMSO solvent without compound served as a control and final DMSO concentration lest than 0.1%. After 72 hours of incubation at 37° C., 5% CO2 incubator, cells were analyzed for the viability using the CellTiter-Glo Luminescent Cell Viability Assay (Promega, Cat #G7570). All viability assays were performed in duplicate and Luminescence was read using an Envision (Perkin Elmer, USA). Data was analyzed using XLfit software.

T1 sequence (P50613 whole entry): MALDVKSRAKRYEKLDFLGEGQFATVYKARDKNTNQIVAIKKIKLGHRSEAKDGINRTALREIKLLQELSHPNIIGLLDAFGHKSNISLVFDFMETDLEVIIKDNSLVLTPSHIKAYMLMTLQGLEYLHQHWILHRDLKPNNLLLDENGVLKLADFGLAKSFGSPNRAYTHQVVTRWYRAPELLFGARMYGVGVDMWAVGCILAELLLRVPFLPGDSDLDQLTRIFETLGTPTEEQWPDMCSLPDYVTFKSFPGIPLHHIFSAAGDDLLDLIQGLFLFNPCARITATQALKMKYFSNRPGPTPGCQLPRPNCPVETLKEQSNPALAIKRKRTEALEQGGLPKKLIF
T1 sequence (P51946 whole entry partner): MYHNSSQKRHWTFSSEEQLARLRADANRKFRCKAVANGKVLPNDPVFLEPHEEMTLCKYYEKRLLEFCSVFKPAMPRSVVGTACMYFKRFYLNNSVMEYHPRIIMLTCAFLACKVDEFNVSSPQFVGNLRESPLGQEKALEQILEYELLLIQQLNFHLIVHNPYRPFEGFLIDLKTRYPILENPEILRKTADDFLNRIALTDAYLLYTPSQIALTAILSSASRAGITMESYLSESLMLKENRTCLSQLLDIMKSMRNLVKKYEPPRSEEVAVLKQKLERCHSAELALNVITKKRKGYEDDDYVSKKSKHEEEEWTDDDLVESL
T1 sequence (P51948 whole entry partner): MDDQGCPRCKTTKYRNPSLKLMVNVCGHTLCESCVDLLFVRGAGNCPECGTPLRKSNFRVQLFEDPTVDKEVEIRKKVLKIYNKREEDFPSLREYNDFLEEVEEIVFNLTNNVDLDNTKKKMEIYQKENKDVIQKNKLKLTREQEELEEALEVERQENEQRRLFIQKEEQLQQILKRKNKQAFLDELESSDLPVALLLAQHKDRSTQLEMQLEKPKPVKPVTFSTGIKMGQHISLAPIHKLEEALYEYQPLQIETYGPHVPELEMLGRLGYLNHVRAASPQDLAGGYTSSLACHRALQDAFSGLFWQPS
T4 sequence (Q00535 whole entry): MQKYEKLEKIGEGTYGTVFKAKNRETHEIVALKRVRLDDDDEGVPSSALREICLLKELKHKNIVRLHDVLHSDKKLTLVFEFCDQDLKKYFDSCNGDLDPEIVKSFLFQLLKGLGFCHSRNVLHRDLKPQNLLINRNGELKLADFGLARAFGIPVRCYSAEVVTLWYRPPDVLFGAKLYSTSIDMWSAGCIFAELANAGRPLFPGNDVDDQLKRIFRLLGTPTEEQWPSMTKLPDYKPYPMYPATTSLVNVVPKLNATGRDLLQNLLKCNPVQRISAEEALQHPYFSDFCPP
T4 sequence (Q15078 99-307 partner limits assumed): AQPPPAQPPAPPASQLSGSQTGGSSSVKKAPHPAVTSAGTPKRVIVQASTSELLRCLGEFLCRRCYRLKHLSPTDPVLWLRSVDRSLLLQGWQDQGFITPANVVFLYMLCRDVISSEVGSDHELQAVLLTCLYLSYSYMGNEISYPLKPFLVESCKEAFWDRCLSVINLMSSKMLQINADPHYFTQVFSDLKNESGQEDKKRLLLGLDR
T3 sequence (P06493 whole entry): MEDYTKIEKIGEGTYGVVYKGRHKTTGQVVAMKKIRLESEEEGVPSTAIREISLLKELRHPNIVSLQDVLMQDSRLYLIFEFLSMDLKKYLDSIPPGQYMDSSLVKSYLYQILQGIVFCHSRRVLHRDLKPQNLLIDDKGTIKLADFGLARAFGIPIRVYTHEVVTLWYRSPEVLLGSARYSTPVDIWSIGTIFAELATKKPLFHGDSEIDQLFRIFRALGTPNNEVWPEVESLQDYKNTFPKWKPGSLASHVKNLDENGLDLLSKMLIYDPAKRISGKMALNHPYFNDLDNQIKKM
T3 sequence (P14635 whole entry partner): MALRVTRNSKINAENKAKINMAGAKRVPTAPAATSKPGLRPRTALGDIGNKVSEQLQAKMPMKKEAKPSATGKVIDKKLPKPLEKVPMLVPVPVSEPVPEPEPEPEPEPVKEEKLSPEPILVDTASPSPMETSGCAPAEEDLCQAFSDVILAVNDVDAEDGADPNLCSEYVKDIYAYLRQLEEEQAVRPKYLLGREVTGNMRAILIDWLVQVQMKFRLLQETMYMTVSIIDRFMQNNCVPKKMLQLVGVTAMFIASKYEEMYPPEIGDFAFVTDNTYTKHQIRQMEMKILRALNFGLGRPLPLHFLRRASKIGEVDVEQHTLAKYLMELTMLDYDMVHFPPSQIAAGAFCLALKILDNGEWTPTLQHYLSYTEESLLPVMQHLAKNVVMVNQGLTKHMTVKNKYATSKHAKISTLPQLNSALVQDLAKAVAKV

| Compound | IC50 (CDK7/Cyclin H/MNAT1) [nM] | CDK1/CDK7: Selectivity of CDK7 inhibition over CDK1 inhibition (CDK7/Cyclin H/MNAT1) | CDK2/CDK7: Selectivity of CDK7 inhibition over CDK2 inhibition (CDK7/Cyclin H/MNAT1) | CDK5/CDK7: Selectivity of CDK7 inhibition over CDK5 inhibition (CDK7/Cyclin H/MNAT1) | IC50 (CDK2/Cyclin A) [nM] | IC50 (CDK1/Cyclin B) [nM] | IC50 (CDK5/p25) [nM] | IC50 (A2780) [nM] |
| --- | --- | --- | --- | --- | --- | --- | --- | --- |
| C=C(F)C(=O)Nc1ccc2c(-c3ccccc3CNc3nc(NC[C@@H]4CNCCO4)nc4c(C(C)C)cnn34)nccc2c1 [Compound 149] | < 100 | B (B indicates 50 < [fold] ≤ 500) | C (C indicates [fold] ≤ 50) | B (B indicates 50 < [fold] ≤ 500) | > 1000 | > 1000 | > 1000 |  |
| CC(C)c1cnn2c(NCc3ccccc3-c3nccc4cc(NC(=O)/C=C/CN(C)C)ccc34)nc(O[C@@H]3CCCNC3)nc12 [Compound 152] | < 100 | A (A indicates [fold] > 500) | A (A indicates [fold] > 500) | A (A indicates [fold] > 500) | > 1000 | > 1000 | > 1000 |  |
| CO[C@H]1CC[C@H](Nc2nc(NCc3ccccc3-c3nccc4cc(NC(=O)/C=C/CN5CCCCC5)ccc34)n3ncc(C(C)C)c3n2)CC1 [Compound 155] | < 100 | A (A indicates [fold] > 500) | A (A indicates [fold] > 500) | A (A indicates [fold] > 500) | > 1000 | > 1000 | > 1000 |  |
| CC(C)c1cnn2c(NCc3ccccc3-c3nccc4cc(NC(=O)/C=C/CN(C)C)ccc34)cc(NC3CCC(F)(F)CC3)nc12 [Compound 185] | < 100 | A (A indicates [fold] > 500) | A (A indicates [fold] > 500) | A (A indicates [fold] > 500) | > 1000 | > 1000 | > 1000 | < 1000 |
| CC(C)c1cnn2c(NCc3ccccc3-c3cc4cccc(NC(=O)/C=C/CN(C)C)c4[nH]3)nc(N3CCC(Nc4nccs4)C3)nc12 (stereo not drawn) [Compound 216] | 100 to 1000 | B (B indicates 50 < [fold] ≤ 500) | B (B indicates 50 < [fold] ≤ 500) | B (B indicates 50 < [fold] ≤ 500) | > 1000 | > 1000 | > 1000 |  |

Second part, the compound after the results:

| IC50 (CDK7/Cyclin H/MNAT1) [nM] | CDK1/CDK7: Selectivity of CDK7 inhibition over CDK1 inhibition (CDK7/Cyclin H/MNAT1) | CDK2/CDK7: Selectivity of CDK7 inhibition over CDK2 inhibition (CDK7/Cyclin H/MNAT1) | CDK5/CDK7: Selectivity of CDK7 inhibition over CDK5 inhibition (CDK7/Cyclin H/MNAT1) | IC50 (CDK2/Cyclin A) [nM] | IC50 (CDK1/Cyclin B) [nM] | IC50 (CDK5/p25) [nM] | IC50 (A2780) [nM] | Compound |
| --- | --- | --- | --- | --- | --- | --- | --- | --- |
| < 100 | A (A indicates [fold] > 500) | A (A indicates [fold] > 500) | A (A indicates [fold] > 500) | > 1000 | > 1000 | > 1000 | < 1000 | C=CC(=O)Nc1ccc2c(-c3ccccc3CNc3cc(NC4CCC(C)(C)NC4)nc4c(C(C)C)cnn34)nccc2c1 (stereo not drawn) [Compound 184] |
| < 100 | A (A indicates [fold] > 500) | A (A indicates [fold] > 500) | A (A indicates [fold] > 500) | > 1000 | > 1000 | > 1000 | < 1000 | C=CC(=O)Nc1ccc2c(-c3ccccc3CNc3cc(NC4CCC(F)(F)CC4)nc4c(C(C)C)cnn34)nccc2c1 [Compound 186] |
| < 100 | A (A indicates [fold] > 500) | A (A indicates [fold] > 500) | A (A indicates [fold] > 500) | > 1000 | > 1000 | > 1000 | < 1000 | C=CC(=O)Nc1ccc2c(-c3ccccc3CNc3cc(Nc4cccc(OC5CCC(C)(C)NC5)c4)nc4c(C(C)C)cnn34)nccc2c1 (stereo not drawn) [Compound 187] |
